Source: patent US12383505B2, “Nanoparticle for the remodeling of cancer-associated fibroblasts” (University of South Carolina, priority 2021, dated 2025)

Key:
4T1-luc orthotopic tumor = assay: Neoadjuvant chemotherapy in orthotopic breast cancer model: primary tumor; assay type: in vivo, BALB/c mice; conditions: i.v., CeNP 1 mg/kg, DOX 3 mg/kg, every 3 days for 4 times
Procedure: (§1) The 4T1 orthotopic model was established following our previous method with a minor modification. All animal experiments were conducted in accordance with NIH regulations and approved by the Institutional Animal Care and Use Committee of the University of South Carolina. 4T1/Luc2 cells (2×10^5 in 20 μl PBS) were injected into the right 4th mammary fat pad of 6-8 weeks female BALB/c mice, and the primary tumor growth was monitored through bioluminescence signal using IVIS imaging system. Two weeks post tumor cell inoculation, the mice were randomly divided into 6 groups (n=10), including control, T-CeNP, T-DOX, free DOX, T-CeNP+T-DOX, and T-CeNP+ Free DOX, and received corresponding neoadjuvant chemotherapy, surgery, and postoperative chemotherapy. In brief, for neoadjuvant chemotherapy, the drugs were intravenously injected at a CeNP dosage of 1 mg/kg and DOX dosage of 3 mg/kg every 3 days for 4 times. Specifically, for the groups of
(§2) T-CeNP+T-DOX and T-CeNP+ free DOX, T-CeNP was administrated to mice 2 days prior to T-DOX or Free DOX treatment. Two days after the last dose, all mice underwent complete
surgical removal of the tumors following our previous method. Two days after the surgery, the mice received another 3 times administration of T-CeNP, T-DOX, free DOX, and their combination as post-surgical chemotherapy. […]

[1] = tested on: 4T1-luc lung and liver metastasis; assay: Post-surgery lung and liver metastasis in orthotopic breast cancer model; assay type: in vivo, BALB/c mice
Procedure: as §1, §2
surgical removal of the tumors following our previous method. Two days after the surgery, the mice received another 3 times administration of T-CeNP, T-DOX, free DOX, and their combination as post-surgical chemotherapy. At the end of the study (day 24), the mice were sacrificed, and the lung and liver were harvested for ex vivo bioluminescence imaging to examine the metastasis.
The harvested tumors and major organs were fixed with 4% paraformaldehyde and processed by paraffin sectioning and frozen sectioning. Tissue sections (heart, liver, spleen, and kidney) and lung sections were hematoxylin and eosin (H&E) stained for acute toxicity evaluation and lung metastasis evaluation. […] All the immunofluorescence images were recorded with a fluorescence microscope (Evos™ FL, ThermoFisher Scientific, MA, USA).

NIH3T3 cells = assay: DOX induced CAF differentiation, immunocytochemistry of α-SMA and fibronectin; assay type: cell-based, mouse; conditions: 0.05 μM of free DOX for 48 hours
Text: (§3) Anthracycline-containing regimens are predominantly used in neoadjuvant chemotherapy for breast cancer. See, J. Wang, T. A. Buchholz, L. P. Middleton, D. C. Allred, S. L. Tucker, H. M. Kuerer, F. J. Esteva, G. N. Hortobagyi, A. A. Sahin, Cancer 2002, 94, 3107; M. S. van Ramshorst, A. van der Voort, E. D. van Werkhoven, I. A. Mandjes, I. Kemper, V. O. Dezentjé, I. M. Oving, A. H. Honkoop, L. W. Tick, A. J. van de Wouw, The Lancet Oncology 2018. However, only a little benefit was achieved from this neoadjuvant chemotherapy in the majority of patients. […] Chen, Y.-A. Lai, Y.-C. Lin, J.-W. Ma, L.-F. Huang, N.-S. Yang, C.-T. Ho, S.-C. Kuo, T.-D. Way, Journal Of Agricultural And Food Chemistry 2013, 61, 11817; N. Chintalaramulu, R. Vadivelu, N. Nguyen, I. Cock, Inflammopharmacology 2020, especially at lower doses. To investigate the relationship between DOX and the differentiation and transdifferentiation of CAF and the potential effect of T-CeNP in inhibiting DOX-induced metastasis, T-CeNP was added to NIH3T3 and 4T1 cells either before or after receiving DOX treatment. The expression of the CAF related proteins, including α-SMA and fibronectin, and metastasis-associated E-cadherin were evaluated by immunocytochemistry. […] The quantitative comparison of their corresponding fluorescence intensities further verified these trends. […]

4T1 cells = assay: DOX induced EMT, immunocytochemistry of E-cadherin; assay type: cell-based, murine; conditions: 0.05 μM of free DOX for 48 hours
Text: as §3

[2] = ex vivo bioluminescence imaging, day 24

Compound: COc1cccc2c1C(=O)c1c(O)c3c(c(O)c1C2=O)C[C@@](O)(C(=O)CO)C[C@@H]3O[C@H]1C[C@H](N)[C@H](O)[C@H](C)O1 [free DOX, doxorubicin]
- primary tumor size (4T1-luc orthotopic tumor): only slightly reduced the size of the primary tumor
- liver metastasis [1, 2]: inductive effect
- lung metastasis occurrence [1, 2]: developed lung metastasis
- lung metastasis nodules ([1]; nodules on the surface of lung): induced more metastasis nods in the lung
- level of α-SMA and fibronectin (NIH3T3 cells): boosted level of α-SMA and fibronectin
- E-cadherin expression (4T1 cells): declined E-cadherin expression
